From patent US6737383B1, “Herbicidal oxadiazolidines” (priority 1999, dated 2004)

What was measured:
duck salad = experiment: Test B flood test duck salad; format: in vivo, Heteranthera limosa
Summary of the method: (§1)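 Read-out is a visual response score from 0 (no effect) to 10 (complete control), assigned by comparison with untreated controls. Treatment was applied at the 2-leaf stage, and plants stayed in the greenhouse for twelve to sixteen days before scoring.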

rape = experiment: Test B pre/postemergence rape; format: in vivo, Brassica napus
Summary of the method: (§2)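 Test chemicals in a non-phytotoxic solvent mixture with surfactant were sprayed preemergence onto planted seeds and postemergence onto plants 2 to 18 cm tall (1- to 4-leaf stage). After twelve to sixteen days in a greenhouse, injury was visually rated against untreated controls from 0 (no effect) to 10 (complete control).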

giant foxtail = experiment: Test B pre/postemergence giant foxtail; format: in vivo, Setaria faberii
Summary of the method: as §2

pigweed = experiment: Test B pre/postemergence pigweed; format: in vivo, Amaranthus retroflexus
Summary of the method: as §2

corn = experiment: Test B pre/postemergence corn; format: in vivo, Zea mays
Summary of the method: as §2

crabgrass = experiment: Test B pre/postemergence crabgrass; format: in vivo, Digitaria sanguinalis
Summary of the method: as §2

soybean = experiment: Test B pre/postemergence soybean; format: in vivo, Glycine max
Summary of the method: as §2

velvetleaf = experiment: Test B pre/postemergence velvetleaf; format: in vivo, Abutilon theophrasti
Summary of the method: as §2

morningglory = experiment: Test B pre/postemergence morningglory; format: in vivo, Ipomoea hederacea
Summary of the method: as §2

purple nutsedge = experiment: Test B pre/postemergence purple nutsedge; format: in vivo, Cyperus rotundus
Summary of the method: as §2

wild oat = experiment: Test B pre/postemergence wild oat; format: in vivo, Avena fatua
Summary of the method: as §2

bedstraw = experiment: Test B pre/postemergence bedstraw; format: in vivo, Galium aparine; details: Postemergence, Rate 125 g/ha; scale of 0 to 10 where 0 is no effect and 10 is complete control
Summary of the method: as §2

rice = experiment: Test B flood test rice; format: in vivo, Oryza sativa
Summary of the method: as §1

blackgrass = experiment: Test B pre/postemergence blackgrass; format: in vivo, Alopecurus myosuroides
Summary of the method: as §2

wheat = experiment: Test B pre/postemergence wheat; format: in vivo, Triticum aestivum
Summary of the method: as §2

surinam grass = experiment: Test B pre/postemergence surinam grass; format: in vivo, Brachiaria decumbens
Summary of the method: as §2

[1] = Rate 62 g/ha, flood test species, Pre-emergence, visual evaluation after twelve to sixteen days
[2] = Rate 125 g/ha, under heading Pre-emergence, flood test species, visual evaluation after twelve to sixteen days
[3] = Rate 250 g/ha, Pre-emergence (flood test species), scale 0 to 10, 0 is no effect, 10 is complete control
[4] = Rate 500 g/ha, Pre-emergence section of Table B, 0 to 10 scale (0 no effect, 10 complete control)
[5] = Postemergence, Rate 62 g/ha, scale 0 to 10, 0 is no effect, 10 is complete control
[6] = Postemergence, Rate 125 g/ha, scale of 0 to 10 where 0 is no effect and 10 is complete control
[7] = Preemergence, Rate 62 g/ha, scale of 0 to 10 where 0 is no effect and 10 is complete control
[8] = Preemergence, Rate 125 g/ha, scale of 0 to 10 where 0 is no effect and 10 is complete control
[9] = Preemergence, Rate 250 g/ha, scale 0 to 10 (0 no effect, 10 complete control)
[10] = Preemergence, Rate 500 g/ha, scale of 0 to 10 where 0 is no effect and 10 is complete control
[11] = Rate 500 g/ha, Postemergence, scale 0 to 10, 0 is no effect, 10 is complete control
[12] = Postemergence, Rate 250 g/ha, scale of 0 to 10, 0 is no effect, 10 is complete control

SMILES: CC(C)N(C(=O)n1oc(=O)n(CCF)c1=O)c1ccc(Cl)cc1 [Compound 668]
- Plant response rating, Ducksalad (0 to 10 scale, 0 is no effect, 10 is complete control) (duck salad; [1]): 0
- Ducksalad plant response rating (0 to 10 scale, 0 is no effect, 10 is complete control) (duck salad; [2]): 0
- Ducksalad plant response rating (duck salad; [3]): 0
- Ducksalad plant response rating (duck salad; [4]): 0
- Plant response rating, Rape (rape; [5]): 2
- Rape plant response rating (rape; [6]): 3
- Rape plant response rating (rape; [7]): 0
- Rape plant response rating (rape; [8]): 5
- Plant response rating, Rape (rape; [9]): 8
- Plant response rating, Rape (rape; [10]): 9
- Rape plant response rating (rape; [11]): 4
- Plant response rating, Giant foxtail (giant foxtail; [5]): 8
- Giant foxtail plant response rating (giant foxtail; [6]): 9
- Giant foxtail plant response rating (giant foxtail; [12]): 9
- Giant foxtail plant response rating (giant foxtail; [7]): 9
- Giant foxtail plant response rating (giant foxtail; [8]): 9
- Plant response rating, Giant foxtail (giant foxtail; [9]): 9
- Plant response rating, Giant foxtail (giant foxtail; [10]): 10
- Giant foxtail plant response rating (giant foxtail; [11]): 9
- Plant response rating, Redroot pigweed (pigweed; [5]): 3
- Redroot pigweed plant response rating (pigweed; [6]): 5
- Redroot pigweed plant response rating (pigweed; [7]): 0
- Redroot pigweed plant response rating (pigweed; [8]): 7
- Plant response rating, Redroot pigweed (pigweed; [9]): 10
- Plant response rating, Redroot pigweed (pigweed; [10]): 10
- Redroot pigweed plant response rating (pigweed; [11]): 7
- Plant response rating, Corn (corn; [5]): 0
- Corn plant response rating (corn; [6]): 0
- Corn plant response rating (corn; [12]): 3
- Corn plant response rating (corn; [7]): 0
- Plant response rating, Corn (corn; [9]): 4
- Plant response rating, Corn (corn; [10]): 9
- Corn plant response rating (corn; [11]): 3
- Plant response rating, Crabgrass (crabgrass; [5]): 6
- Crabgrass plant response rating (crabgrass; [6]): 9
- Crabgrass plant response rating (crabgrass; [12]): 9
- Crabgrass plant response rating (crabgrass; [7]): 8
- Crabgrass plant response rating (crabgrass; [8]): 8
- Plant response rating, Crabgrass (crabgrass; [9]): 8
- Plant response rating, Crabgrass (crabgrass; [10]): 8
- Crabgrass plant response rating (crabgrass; [11]): 10
- Plant response rating, Soybean (soybean; [5]): 2
- Soybean plant response rating (soybean; [6]): 2
- Soybean plant response rating (soybean; [7]): 0
- Soybean plant response rating (soybean; [8]): 1
- Plant response rating, Soybean (soybean; [9]): 1
- Plant response rating, Soybean (soybean; [10]): 6
- Soybean plant response rating (soybean; [11]): 6
- Plant response rating, Velvetleaf (velvetleaf; [5]): 0
- Velvetleaf plant response rating (velvetleaf; [6]): 0
- Velvetleaf plant response rating (velvetleaf; [7]): 3
- Velvetleaf plant response rating (velvetleaf; [8]): 6
- Plant response rating, Velvetleaf (velvetleaf; [9]): 7
- Plant response rating, Velvetleaf (velvetleaf; [10]): 8
- Velvetleaf plant response rating (velvetleaf; [11]): 7
- Plant response rating, Morningglory (morningglory; [5]): 1
- Morningglory plant response rating (morningglory; [6]): 3
- Morningglory plant response rating (morningglory; [12]): 4
- Morningglory plant response rating (morningglory; [7]): 0
- Morningglory plant response rating (morningglory; [8]): 0
- Plant response rating, Morningglory (morningglory; [9]): 0
- Plant response rating, Morningglory (morningglory; [10]): 5
- Morningglory plant response rating (morningglory; [11]): 4
- Plant response rating, Nutsedge (purple nutsedge; [5]): 0
- Nutsedge plant response rating (purple nutsedge; [6]): 0
- Nutsedge plant response rating (purple nutsedge; [7]): 0
- Nutsedge plant response rating (purple nutsedge; [8]): 0
- Plant response rating, Nutsedge (purple nutsedge; [9]): 0
- Plant response rating, Nutsedge (purple nutsedge; [10]): 0
- Nutsedge plant response rating (purple nutsedge; [11]): 0
- Plant response rating, Wild oats (wild oat; [5]): 0
- Wild oats plant response rating (wild oat; [6]): 0
- Wild oats plant response rating (wild oat; [7]): 2
- Wild oats plant response rating (wild oat; [8]): 7
- Plant response rating, Wild oats (wild oat; [9]): 8
- Plant response rating, Wild oats (wild oat; [10]): 9
- Wild oats plant response rating (wild oat; [11]): 0
- Bedstraw plant response rating (bedstraw): 0
- Plant response rating, Rice (0 to 10 scale, 0 is no effect, 10 is complete control) (rice; [1]): 0
- Rice plant response rating (0 to 10 scale, 0 is no effect, 10 is complete control) (rice; [2]): 0
- Rice plant response rating (rice; [3]): 0
- Rice plant response rating (rice; [4]): 0
- Plant response rating, Blackgrass (blackgrass; [5]): 7
- Blackgrass plant response rating (blackgrass; [6]): 8
- Blackgrass plant response rating (blackgrass; [12]): 8
- Blackgrass plant response rating (blackgrass; [7]): 6
- Blackgrass plant response rating (blackgrass; [8]): 8
- Plant response rating, Blackgrass (blackgrass; [9]): 10
- Plant response rating, Blackgrass (blackgrass; [10]): 10
- Blackgrass plant response rating (blackgrass; [11]): 9
- Plant response rating, Wheat (wheat; [5]): 0
- Wheat plant response rating (wheat; [6]): 0
- Wheat plant response rating (wheat; [7]): 0
- Wheat plant response rating (wheat; [8]): 0
- Plant response rating, Wheat (wheat; [9]): 5
- Plant response rating, Wheat (wheat; [10]): 7
- Wheat plant response rating (wheat; [11]): 0
- Plant response rating, B. signalgrass (surinam grass; [5]): 1
- Plant response rating, B. signalgrass (surinam grass; [6]): 2
- B. signalgrass plant response rating (surinam grass; [12]): 4
- B. signalgrass plant response rating (surinam grass; [7]): 5
- B. signalgrass plant response rating (surinam grass; [8]): 8
- Plant response rating, B. signalgrass (surinam grass; [9]): 8
- Plant response rating, B. signalgrass (surinam grass; [10]): 9
- B. signalgrass plant response rating (surinam grass; [11]): 5
